SMILES strings stand for the structures. Where two headings read alike, the source gives them in different places.

For this assay, the target named is T1, rat CB-1 receptor (Rattus norvegicus, UniProt P20272).
T1 construct: The tissue obtained from the brain of SD rats was homogenized; from tissue; host or cells: SD rat brain (membrane pellet of homogenate)
The assay is described as follows: rat CB-1 receptor binding protocol with [3H]CP-55940 on SD rat brain tissue. The conditions noted are these: [3H]CP-55940 displacement, SD rat brain homogenate; for IC50: read-out: IC50 (binding affinity for CB1 receptor).

T1 sequence (P20272 whole entry): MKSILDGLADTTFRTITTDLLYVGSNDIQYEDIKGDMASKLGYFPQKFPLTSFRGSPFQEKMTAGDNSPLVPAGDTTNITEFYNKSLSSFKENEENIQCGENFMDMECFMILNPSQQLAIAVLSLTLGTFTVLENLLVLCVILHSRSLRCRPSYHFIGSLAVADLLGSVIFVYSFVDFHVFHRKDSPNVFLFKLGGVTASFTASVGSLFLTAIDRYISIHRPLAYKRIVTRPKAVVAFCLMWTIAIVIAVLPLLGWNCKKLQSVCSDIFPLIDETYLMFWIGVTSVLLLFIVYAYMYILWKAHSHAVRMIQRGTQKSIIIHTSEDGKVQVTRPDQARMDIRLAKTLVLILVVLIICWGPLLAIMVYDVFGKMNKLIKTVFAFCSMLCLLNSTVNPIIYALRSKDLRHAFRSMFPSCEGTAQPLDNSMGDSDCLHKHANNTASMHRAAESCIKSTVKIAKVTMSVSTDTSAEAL
Experimental: The tissue obtained from the brain of SD rats was homogenized with a Dounce homogenate system in TME (50 mM Tris, 3 mM MgCl2 and 1 mM EDTA, pH 7.4) at 4° C., and the homogenate was centrifuged at 48,000 g for 30 min. at 4° C. The pellet was resuspended in 5 ml of TME and the suspension was divided into aliquots and stored at −70° C. until its use in the following assay.
The tissue concentrations were determined by Bradford protein analysis, and 148 μl of brain tissue of the required concentration was added to the plate. The plate was covered and placed in a 30° C. incubator for 60 min, and then transformed on GF/B filtermat pretreated in polyethylenimine (PEI) using a cell harvester. Each filter was washed five times and dried at 60° C. for 1 hr. Then, the degree of radioactivity retained by the filter was measured using Wallac Microbeta™ (PerkinElmer Life Sciences, Inc., Massachusetts, U.S.A.) and the activity of the compound for inhibiting CB1 receptor was determined therefrom.

Turning to `CCC(CC)C(=O)NC(=O)c1nn(-c2ccc(Cl)cc2Cl)c(-c2ccc(Cl)cc2)c1C` [Example 1, 5-(4-Chlorophenyl)-1-(2,4-dichlorophenyl)-N-(2-ethylbutanoyl)-4-methyl-1H-pyrazole-3-carboxamide], the IC50 – broadly, the concentration that gives 50% inhibition – (30° C., 60 min) stood at 24.8 nM. Still for that read-out and setting: as for `Cc1c(C(=O)NC(=O)C2CC2)nn(-c2ccc(Cl)cc2Cl)c1-c1ccc(Cl)cc1` [Example 2, 5-(4-Chlorophenyl)-N-(cyclopropanecarbonyl)-1-(2,4-dichlorophenyl)-4-methyl-1H-pyrazole-3-carboxamide], the figure is 124 nM; as for `Cc1c(C(=O)NC(=O)C2CCC2)nn(-c2ccc(Cl)cc2Cl)c1-c1ccc(Cl)cc1` [Example 3, 5-(4-Chlorophenyl)-N-(cyclobutanecarbonyl)-1-(2,4-dichlorophenyl)-4-methyl-1H-pyrazole-3-carboxamide], 127 nM.

Regarding `Cc1c(C(=O)NC(=O)C2CCCC2)nn(-c2ccc(Cl)cc2Cl)c1-c1ccc(Cl)cc1` [Example 4, 5-(4-Chlorophenyl)-N-(cyclopentanecarbonyl)-1-(2,4-dichlorophenyl)-4-methyl-1H-pyrazole-3-carboxamide], where the note is “30° C., 60 min”, the IC50 is 67.2 nM.

On to `Cc1c(C(=O)NC(=O)C2CCCCC2)nn(-c2ccc(Cl)cc2Cl)c1-c1ccc(Cl)cc1` [Example 5, 5-(4-Chlorophenyl)-N-(cyclohexanecarbonyl)-1-(2,4-dichlorophenyl)-4-methyl-1H-pyrazole-3-carboxamide], for which the IC50 (30° C., 60 min) stood at 30.4 nM. Turning to `CC(=O)NC(=O)c1nn(-c2ccc(Cl)cc2Cl)c(-c2ccc(Cl)cc2)c1C` [Example 6, N-Acetyl-5-(4-chlorophenyl)-1-(2,4-dichlorophenyl)-4-methyl-1H-pyrazole-3-carboxamide], the 50% inhibitory concentration (IC50) (30° C., 60 min) is 383 nM. On the same count and under the same terms, as for `CCCC(=O)NC(=O)c1nn(-c2ccc(Cl)cc2Cl)c(-c2ccc(Cl)cc2)c1C` [Example 7, N-Butyryl-5-(4-chlorophenyl)-1-(2,4-dichlorophenyl)-4-methyl-1H-pyrazole-3-carboxamide], the figure is 43.7 nM; as for `CCCCCC(=O)NC(=O)c1nn(-c2ccc(Cl)cc2Cl)c(-c2ccc(Cl)cc2)c1C` [Example 8, 5-(4-Chlorophenyl)-1-(2,4-dichlorophenyl)-N-hexanoyl-4-methyl-1H-pyrazole-3-carboxamide], 33.5 nM; as for `Cc1c(C(=O)NC(=O)C(C)C)nn(-c2ccc(Cl)cc2Cl)c1-c1ccc(Cl)cc1` [Example 9, 5-(4-Chlorophenyl)-1-(2,4-dichlorophenyl)-N-isobutyryl-4-methyl-1H-pyrazole-3-carboxamide], 161 nM.

With `Cc1c(C(=O)NC(=O)C(C)(C)C)nn(-c2ccc(Cl)cc2Cl)c1-c1ccc(Cl)cc1` [Example 10, 5-(4-Chlorophenyl)-1-(2,4-dichlorophenyl)-4-methyl-N-pivaloyl-1H-pyrazole-3-carboxamide], the IC50 (30° C., 60 min) is 32.7 nM. The same measure, in the same setting: as for `CCC(C)(C)C(=O)NC(=O)c1nn(-c2ccc(Cl)cc2Cl)c(-c2ccc(Cl)cc2)c1C` [Example 11, 5-(4-Chlorophenyl)-1-(2,4-dichlorophenyl)-N-(2,2-dimethylbutanoyl)-4-methyl-1H-pyrazole-3-carboxamide], the figure is 21.2 nM. On the same count and under the same terms, as for `Cc1c(C(=O)NC(=O)CC(C)(C)C)nn(-c2ccc(Cl)cc2Cl)c1-c1ccc(Cl)cc1` [Example 12, 5-(4-Chlorophenyl)-1-(2,4-dichlorophenyl)-N-(3,3-dimethylbutanoyl)-4-methyl-1H-pyrazole-3-carboxamide], the figure is 53.4 nM; as for `CCCC(CCC)C(=O)NC(=O)c1nn(-c2ccc(Cl)cc2Cl)c(-c2ccc(Cl)cc2)c1C` [Example 13, 5-(4-Chlorophenyl)-1-(2,4-dichlorophenyl)-4-methyl-N-(2-propylpentanoyl)-1H-pyrazole-3-carboxamide], 26.9 nM; as for `CCCCC(CC)C(=O)NC(=O)c1nn(-c2ccc(Cl)cc2Cl)c(-c2ccc(Cl)cc2)c1C` (stereo not shown) [Example 14, 5-(4-Chlorophenyl)-1-(2,4-dichlorophenyl)-N-(2-ethylhexanoyl)-4-methyl-1H-pyrazole-3-carboxamide], 43.1 nM. For the compound `CCCCCCNC(=O)NC(=O)c1nn(-c2ccc(Cl)cc2Cl)c(-c2ccc(Cl)cc2)c1C` [Example 15, 5-(4-Chlorophenyl)-1-(2,4-dichlorophenyl)-N-(hexylcarbamoyl)-4-methyl-1H-pyrazole-3-carboxamide], under “30° C., 60 min”, the IC50 came out at 138 nM. As to `Cc1c(C(=O)NC(=O)NC2CCCCC2)nn(-c2ccc(Cl)cc2Cl)c1-c1ccc(Cl)cc1` [Example 16, 5-(4-Chlorophenyl)-N-(cyclohexylcarbamoyl)-1-(2,4-dichlorophenyl)-4-methyl-1H-pyrazole-3-carboxamide], the IC50 (30° C., 60 min) is 390 nM. Take `Cc1c(C(=O)NC(=O)NC2CCCCCC2)nn(-c2ccc(Cl)cc2Cl)c1-c1ccc(Cl)cc1` [Example 17, 5-(4-Chlorophenyl)-N-(cycloheptylcarbamoyl)-1-(2,4-dichlorophenyl)-4-methyl-1H-pyrazole-3-carboxamide]: the IC50 (30° C., 60 min) was 750 nM. In the case of `Cc1c(C(=O)NC(=O)NCC2CCCCC2)nn(-c2ccc(Cl)cc2Cl)c1-c1ccc(Cl)cc1` [Example 18, 5-(4-Chlorophenyl)-N-(cyclohexylmethylcarbamoyl)-1-(2,4-dichlorophenyl)-4-methyl-1H-pyrazole-3-carboxamide], the “IC50 (binding affinity for CB1 receptor)” value (30° C., 60 min) was “insoluble”.

With `Cc1c(C(=O)NC(=O)NC(C)C)nn(-c2ccc(Cl)cc2Cl)c1-c1ccc(Cl)cc1` [Example 19, 5-(4-Chlorophenyl)-1-(2,4-dichlorophenyl)-N-(isopropylcarbamoyl)-4-methyl-1H-pyrazole-3-carboxamide], for the setting “30° C., 60 min”, the half-inhibitory concentration (IC50) is 253 nM. As for `Cc1c(C(=O)NC(=O)NC(C)(C)C)nn(-c2ccc(Cl)cc2Cl)c1-c1ccc(Cl)cc1` [Example 20, N-(tert-butylcarbamoyl)-5-(4-chlorophenyl)-1-(2,4-dichlorophenyl)-4-methyl-1H-pyrazole-3-carboxamide], the “IC50 (binding affinity for CB1 receptor)” value (30° C., 60 min) was “insoluble”.

In the case of `Cc1c(C(=O)NC(=O)Nc2ccccc2)nn(-c2ccc(Cl)cc2Cl)c1-c1ccc(Cl)cc1` [Example 21, 5-(4-Chlorophenyl)-1-(2,4-dichlorophenyl)-4-methyl-N-(phenylcarbamoyl)-1H-pyrazole-3-carboxamide], the IC50 was more than 10000 nM.

For the compound `Cc1c(C(=O)NC(=O)NCc2ccccc2)nn(-c2ccc(Cl)cc2Cl)c1-c1ccc(Cl)cc1` [Example 22, N-(Benzylcarbamoyl)-5-(4-chlorophenyl)-1-(2,4-dichlorophenyl)-4-methyl-1H-pyrazole-3-carboxamide], the IC50 (30° C., 60 min) amounted to 146 nM. Same read-out and setting: as for `Cc1c(C(=O)NC(=O)OCc2ccccc2)nn(-c2ccc(Cl)cc2Cl)c1-c1ccc(Cl)cc1` [Example 23, Benzyl 5-(4-chlorophenyl)-1-(2,4-dichlorophenyl)-4-methyl-1H-pyrazole-3-carbonylcarbamate], the figure is 17.8 nM; as for `CCCCOC(=O)NC(=O)c1nn(-c2ccc(Cl)cc2Cl)c(-c2ccc(Cl)cc2)c1C` [Example 24, Butyl 5-(4-chlorophenyl)-1-(2,4-dichlorophenyl)-4-methyl-1H-pyrazole-3-carbonylcarbamate], 99.7 nM; as for `Cc1c(C(=O)NC(=O)OC(C)(C)C)nn(-c2ccc(Cl)cc2Cl)c1-c1ccc(Cl)cc1` [Example 25, tert-Butyl 5-(4-chlorophenyl)-1-(2,4-dichlorophenyl)-4-methyl-1H-pyrazole-3-carbonylcarbamate], 82.5 nM. As to `Cc1c(C(=O)NC(=O)OCC(C)(C)C)nn(-c2ccc(Cl)cc2Cl)c1-c1ccc(Cl)cc1` [Example 26, Neopentyl 5-(4-chlorophenyl)-1-(2,4-dichlorophenyl)-4-methyl-1H-pyrazole-3-carbonylcarbamate], the IC50 (30° C., 60 min) was determined as 363 nM. On to `CCC(CC)C(=O)NC(=O)c1nc(-c2ccc(Cl)cc2Cl)n(-c2ccc(Cl)cc2)c1C` [Example 27, 1-(4-Chlorophenyl)-2-(2,4-dichlorophenyl)-N-(2-ethylbutanoyl)-5-methyl-1H-imidazole-4-carboxamide], for which, where the note is “30° C., 60 min”, the half-maximal inhibitory concentration (IC50) amounted to 20 nM. For `Cc1c(C(=O)NC(=O)C2CCCCC2)nc(-c2ccc(Cl)cc2Cl)n1-c1ccc(Cl)cc1` [Example 28, 1-(4-Chlorophenyl)-N-(cyclohexanecarbonyl)-2-(2,4-dichlorophenyl)-5-methyl-1H-imidazole-4-carboxamide], for the setting “30° C., 60 min”, the concentration for half-maximal inhibition (IC50) came to 88 nM. With `Cc1c(C(=O)NC(=O)C(C)(C)C)nc(-c2ccc(Cl)cc2Cl)n1-c1ccc(Cl)cc1` [Example 29, 1-(4-Chlorophenyl)-2-(2,4-dichlorophenyl)-5-methyl-N-pivaloyl-1H-imidazole-4-carboxamide], the 50% inhibitory concentration (IC50) (30° C., 60 min) is 40 nM. With `CCC(C)(C)C(=O)NC(=O)c1nc(-c2ccc(Cl)cc2Cl)n(-c2ccc(Cl)cc2)c1C` [Example 30, 1-(4-Chlorophenyl)-2-(2,4-dichlorophenyl)-N-(2,2-dimethylbutanoyl)-5-methyl-1H-imidazole-4-carboxamide], the IC50 (30° C., 60 min) is 39.9 nM.

For the compound `CCCC(CCC)C(=O)NC(=O)c1nc(-c2ccc(Cl)cc2Cl)n(-c2ccc(Cl)cc2)c1C` [Example 31, 1-(4-Chlorophenyl)-2-(2,4-dichlorophenyl)-5-methyl-N-(2-propylpentanoyl)-1H-imidazole-4-carboxamide], the IC50 (30° C., 60 min) came out at 75.4 nM. `CCCCC(CC)C(=O)NC(=O)c1nc(-c2ccc(Cl)cc2Cl)n(-c2ccc(Cl)cc2)c1C` (stereo not shown) [Example 32, 1-(4-Chlorophenyl)-2-(2,4-dichlorophenyl)-N-(2-ethylhexanoyl)-5-methyl-1H-imidazole-4-carboxamide]: under “30° C., 60 min”, the half-inhibitory concentration (IC50) is 46.6 nM. On the same count and under the same terms, as for `CCCCCCCC(=O)NCNC(=O)c1nn(-c2ccc(Cl)cc2Cl)c(-c2ccc(Cl)cc2)c1C` [Example 33, 5-(4-Chlorophenyl)-1-(2,4-dichlorophenyl)-4-methyl-N-(octanamidomethyl)-1H-pyrazole-3-carboxamide], the figure is 1180 nM. As for `Cc1c(C(=O)NCNC(=O)C2CCC2)nn(-c2ccc(Cl)cc2Cl)c1-c1ccc(Cl)cc1` [Example 34, 5-(4-Chlorophenyl)-N-(cyclobutanecarboxamidomethyl)-1-(2,4-dichlorophenyl)-4-methyl-1H-pyrazole-3-carboxamide], where the note is “30° C., 60 min”, the half-maximal inhibitory concentration (IC50) was 150 nM.

The values are drawn from US20080262066A1, “Azole Derivatives as Cannabinoid CB1 Receptor Antagonists” (Green Cross Corporation, priority 2007, published 2008).
